{"source": "patent US5348946A", "about": "“Heteroanthracycline antitumor analogs” (Biochem Immunosystems, Inc., priority 1991, dated 1994)", "format_in_all_cases": "cell-based", "key": {"DLD-1": {"system": "DLD-1", "test": "in vitro cytotoxicity evaluation, Colon Cancer", "conditions": "Homo sapiens, 48 h, DLD-1, two days, sulforhodamine B", "protocol": "(§1) These assays were carried out at the Developmental Therapeutics Program, Division of Cancer Treatment, National Cancer Institute (Bethesda, Md., USA). The method consists of incubating varying concentrations of the drug with an inoculum of cells for two days.\n(§2) It should be noted that the first two parameters (GI50 and TGI) relate to antiproliferation effects while the third one (LC50) indicates true cytotoxicity."}, "HT 29": {"system": "HT 29", "test": "in vitro cytotoxicity evaluation, Colon Cancer", "conditions": "Homo sapiens, 48 h, HT 29, two days, sulforhodamine B", "protocol": "as §1, §2"}, "HCT-116": {"system": "HCT-116", "test": "in vitro cytotoxicity evaluation, Colon Cancer", "conditions": "Homo sapiens, 48 h, HCT-116, two days, sulforhodamine B", "protocol": "as §1, §2"}, "KM 12": {"system": "KM 12", "test": "in vitro cytotoxicity evaluation, Colon Cancer", "conditions": "Homo sapiens, KM12, 48 h, KM 12, two days, sulforhodamine B", "protocol": "as §1, §2"}, "HCT-15": {"system": "HCT-15", "test": "in vitro cytotoxicity evaluation, Colon Cancer", "conditions": "Homo sapiens, 48 h, HCT-15, two days, sulforhodamine B", "protocol": "as §1, §2"}, "Colo 205": {"system": "Colo 205", "test": "in vitro cytotoxicity evaluation, Colon Cancer", "conditions": "Homo sapiens, 48 h, Colo 205, two days, sulforhodamine B", "protocol": "as §1, §2"}, "SW-620": {"system": "SW-620", "test": "in vitro cytotoxicity evaluation, Colon Cancer", "conditions": "Homo sapiens, 48 h, SW-620, two days, sulforhodamine B", "protocol": "as §1, §2"}, "MK20L2": {"system": "MK20L2", "test": "in vitro cytotoxicity evaluation, Colon Cancer", "conditions": "Homo sapiens, 48 h, MK20L2, two days, sulforhodamine B", "protocol": "as §1, §2"}, "M14": {"system": "M14", "test": "in vitro cytotoxicity evaluation, Melanoma", "conditions": "Homo sapiens, 48 h, M14, two days, sulforhodamine B", "protocol": "as §1, §2"}, "M19-MEL": {"system": "M19-MEL", "test": "in vitro cytotoxicity evaluation, Melanoma", "conditions": "Homo sapiens, 48 h, two days, sulforhodamine B", "protocol": "as §1, §2"}, "UACC-257": {"system": "UACC-257", "test": "in vitro cytotoxicity evaluation, Melanoma", "conditions": "Homo sapiens, 48 h, UACC-257, two days, sulforhodamine B", "protocol": "as §1, §2"}, "SK-MEL-28": {"system": "SK-MEL-28", "test": "in vitro cytotoxicity evaluation, Melanoma", "conditions": "Homo sapiens, 48 h, SK-MEL-28, two days, sulforhodamine B", "protocol": "as §1, §2"}, "UACC-62": {"system": "UACC-62", "test": "in vitro cytotoxicity evaluation, Melanoma", "conditions": "Homo sapiens, 48 h, UACC-62, two days, sulforhodamine B", "protocol": "as §1, §2"}, "LOX IMVI": {"system": "LOX IMVI", "test": "in vitro cytotoxicity evaluation, Melanoma", "conditions": "Homo sapiens, 48 h, two days, sulforhodamine B", "protocol": "as §1, §2"}, "SK-MEL-2": {"system": "SK-MEL-2", "test": "in vitro cytotoxicity evaluation, Melanoma", "conditions": "Homo sapiens, 48 h, SK-MEL-2, two days, sulforhodamine B", "protocol": "as §1, §2"}, "SK-MEL-5": {"system": "SK-MEL-5", "test": "in vitro cytotoxicity evaluation, Melanoma", "conditions": "Homo sapiens, 48 h, SK-MEL-5, two days, sulforhodamine B", "protocol": "as §1, §2"}, "MALME-3M": {"system": "MALME-3M", "test": "in vitro cytotoxicity evaluation, Melanoma", "conditions": "Homo sapiens, 48 h, two days, sulforhodamine B", "protocol": "as §1, §2"}, "NCI-H522": {"system": "NCI-H522", "test": "in vitro cytotoxicity evaluation, Non-Small Cell Lung Cancer", "conditions": "Homo sapiens, 48 h, NCI-H522, two days, sulforhodamine B", "protocol": "as §1, §2"}, "HI-60TB": {"system": "HI-60TB", "test": "in vitro cytotoxicity evaluation, Leukemia", "conditions": "Homo sapiens, 48 h, two days, sulforhodamine B"}, "[1]": {"conditions": "read-out: LOG10 G150 (GI50) (converted)"}, "[2]": {"conditions": "read-out: Log10 LC50 (converted)"}, "[3]": {"conditions": "read-out: Log10 TGI (converted)"}}}
{"smiles": "COc1c2c(c(OC)c3c(=O)c4ccccc4sc13)CS(=O)(=O)[C@@H]2O[C@H]1C[C@H](N)[C@H](O)[C@H](C)O1", "note": "[BCH-255, (1S ) 1-daunosamine-4-11-dimethoxy-5-oxo-5-H-1,3-dihydrothioxantheno [2,3-c] thiophene-2,2-dioxide]", "values": [{"measurement": "GI50", "setting": "DLD-1; [1]", "result": 24.5, "unit": "µM"}, {"measurement": "LC50", "setting": "DLD-1; [2]", "result": "> 100", "unit": "µM"}, {"measurement": "IC (total growth inhibition (TGI))", "setting": "DLD-1; [3]", "result": 67.6, "unit": "µM"}, {"measurement": "GI50", "setting": "HT 29; [1]", "result": 17.8, "unit": "µM"}, {"measurement": "CC50", "setting": "HT 29; [2]", "result": 61.7, "unit": "µM"}, {"measurement": "IC (total growth inhibition (TGI))", "setting": "HT 29; [3]", "result": 33.1, "unit": "µM"}, {"measurement": "GI50", "setting": "HCT-116; [1]", "result": 20.4, "unit": "µM"}, {"measurement": "CC50", "setting": "HCT-116; [2]", "result": 75.9, "unit": "µM"}, {"measurement": "IC (total growth inhibition (TGI))", "setting": "HCT-116; [3]", "result": 39.8, "unit": "µM"}, {"measurement": "GI50", "setting": "KM 12; [1]", "result": 18.2, "unit": "µM"}, {"measurement": "CC50", "setting": "KM 12; [2]", "result": 87.1, "unit": "µM"}, {"measurement": "IC (total growth inhibition (TGI))", "setting": "KM 12; [3]", "result": 39.8, "unit": "µM"}, {"measurement": "GI50", "setting": "HCT-15; [1]", "result": 19.1, "unit": "µM"}, {"measurement": "CC50", "setting": "HCT-15; [2]", "result": 95.5, "unit": "µM"}, {"measurement": "IC (total growth inhibition (TGI))", "setting": "HCT-15; [3]", "result": 42.7, "unit": "µM"}, {"measurement": "GI50", "setting": "Colo 205; [1]", "result": 17.8, "unit": "µM"}, {"measurement": "CC50", "setting": "Colo 205; [2]", "result": 77.6, "unit": "µM"}, {"measurement": "IC (total growth inhibition (TGI))", "setting": "Colo 205; [3]", "result": 37.2, "unit": "µM"}, {"measurement": "GI50", "setting": "SW-620; [1]", "result": 20.4, "unit": "µM"}, {"measurement": "CC50", "setting": "SW-620; [2]", "result": 67.6, "unit": "µM"}, {"measurement": "IC (total growth inhibition (TGI))", "setting": "SW-620; [3]", "result": 37.2, "unit": "µM"}, {"measurement": "GI50", "setting": "MK20L2; [1]", "result": 17, "unit": "µM"}, {"measurement": "CC50", "setting": "MK20L2; [2]", "result": 57.5, "unit": "µM"}, {"measurement": "IC (total growth inhibition (TGI))", "setting": "MK20L2; [3]", "result": 30.9, "unit": "µM"}, {"measurement": "GI50", "setting": "M14; [1]", "result": 18.2, "unit": "µM"}, {"measurement": "CC50", "setting": "M14; [2]", "result": 60.3, "unit": "µM"}, {"measurement": "IC (total growth inhibition (TGI))", "setting": "M14; [3]", "result": 33.1, "unit": "µM"}, {"measurement": "GI50", "setting": "M19-MEL; [1]", "result": 18.2, "unit": "µM"}, {"measurement": "CC50", "setting": "M19-MEL; [2]", "result": 67.6, "unit": "µM"}, {"measurement": "IC (total growth inhibition (TGI))", "setting": "M19-MEL; [3]", "result": 34.7, "unit": "µM"}, {"measurement": "GI50", "setting": "UACC-257; [1]", "result": 22.4, "unit": "µM"}, {"measurement": "CC50", "setting": "UACC-257; [2]", "result": 85.1, "unit": "µM"}, {"measurement": "IC (total growth inhibition (TGI))", "setting": "UACC-257; read-out: Log10 TGI", "result": 43.7, "unit": "µM"}, {"measurement": "GI50", "setting": "SK-MEL-28; [1]", "result": 18.2, "unit": "µM"}, {"measurement": "CC50", "setting": "SK-MEL-28; [2]", "result": 67.6, "unit": "µM"}, {"measurement": "IC (total growth inhibition (TGI))", "setting": "SK-MEL-28; [3]", "result": 34.7, "unit": "µM"}, {"measurement": "GI50", "setting": "UACC-62; [1]", "result": 19.1, "unit": "µM"}, {"measurement": "CC50", "setting": "UACC-62; [2]", "result": 74.1, "unit": "µM"}, {"measurement": "IC (total growth inhibition (TGI))", "setting": "UACC-62; [3]", "result": 37.2, "unit": "µM"}, {"measurement": "GI50", "setting": "LOX IMVI; [1]", "result": 17.8, "unit": "µM"}, {"measurement": "CC50", "setting": "LOX IMVI; [2]", "result": 81.3, "unit": "µM"}, {"measurement": "IC (total growth inhibition (TGI))", "setting": "LOX IMVI; [3]", "result": 38, "unit": "µM"}, {"measurement": "GI50", "setting": "SK-MEL-2; [1]", "result": 19.1, "unit": "µM"}, {"measurement": "CC50", "setting": "SK-MEL-2; [2]", "result": 70.8, "unit": "µM"}, {"measurement": "IC (total growth inhibition (TGI))", "setting": "SK-MEL-2; [3]", "result": 36.3, "unit": "µM"}, {"measurement": "GI50", "setting": "SK-MEL-5; [1]", "result": 18.2, "unit": "µM"}, {"measurement": "CC50", "setting": "SK-MEL-5; [2]", "result": 57.5, "unit": "µM"}, {"measurement": "IC (total growth inhibition (TGI))", "setting": "SK-MEL-5; [3]", "result": 32.4, "unit": "µM"}, {"measurement": "GI50", "setting": "MALME-3M; [1]", "result": 20, "unit": "µM"}, {"measurement": "CC50", "setting": "MALME-3M; [2]", "result": 67.6, "unit": "µM"}, {"measurement": "IC (total growth inhibition (TGI))", "setting": "MALME-3M; [3]", "result": 36.3, "unit": "µM"}, {"measurement": "GI50", "setting": "NCI-H522; [1]", "result": 18.6, "unit": "µM"}, {"measurement": "CC50", "setting": "NCI-H522; [2]", "result": 77.6, "unit": "µM"}, {"measurement": "IC (total growth inhibition (TGI))", "setting": "NCI-H522; [3]", "result": 38, "unit": "µM"}, {"measurement": "GI50", "setting": "HI-60TB; [1]", "result": 15.8, "unit": "µM"}, {"measurement": "CC50", "setting": "HI-60TB; [2]", "result": 69.2, "unit": "µM"}, {"measurement": "IC (total growth inhibition (TGI))", "setting": "HI-60TB; [3]", "result": 33.1, "unit": "µM"}]}
